In patent US20210338846A1, “COMPETITIVE PROSTATE-SPECIFIC MEMBRANE ANTIGEN (PSMA) BINDING AGENTS FOR REDUCTION OF NON-TARGET ORGAN UPTAKE OF RADIOLABELED PSMA INHIBITORS FOR PSMA POSITIVE TUMOR IMAGING AND RADIOPHARMACEUTICAL THERAPY” (The Johns Hopkins University, priority 2018, published 2021):
Where two headings read alike, the source gives them in different places.

Key:
[1] = tested on: PSMA+ PC-3 PiP and PSMA− PC-3 flu tumors; type: in vivo; conditions: early time points
[2] = tested on: PSMA+ PC-3 PiP and PSMA− PC-3 flu tumors
[3] = 1 h, co-injection 0.5 nmole YC-I-27
[4] = 4 h, co-injection 0.5 nmole YC-I-27
[5] = 24 h, co-injection 0.5 nmole YC-I-27

O=C(O)CC[C@H](NC(=O)N[C@@H](CCCCN(Cc1ccc(I)cc1)C(=O)CCCCNC(=O)CN1CCN(CC(=O)O)CCN(CC(=O)O)CCN(CC(=O)O)CC1)C(=O)O)C(=O)O [VK-02-90]
effect of competing inhibitor on uptake of [125I]VK-02-90-Lu in kidneys, salivary glands and lacrimal glands [1]: effective CI

O=C(O)CC[C@H](NC(=O)N[C@@H](CCCCN(Cc1ccc([125I])cc1)C(=O)CCCCNC(=O)CN1CCN(CC(=O)O)CCN(CC(=O)O)CCN(CC(=O)O)CC1)C(=O)O)C(=O)O [[^125I]VK-02-90]
Biodistribution: Blood ([2]; 1 h, No CI): 1.1 ± 0.3 % injected dose/gram
Biodistribution: Flu tumor ([2]; 1 h, No CI): 1.4 ± 0.6 % injected dose/gram
Biodistribution: Lacrimal gland ([2]; 1 h, No CI): 17.4 ± 6.0 % injected dose/gram
Biodistribution: PiP tumor ([2]; 1 h, No CI): 58 ± 14 % injected dose/gram
Biodistribution: Salivary gland ([2]; 1 h, No CI): 5.1 ± 3.4 % injected dose/gram
Biodistribution: kidneys ([2]; 1 h, No CI): 194 ± 25 % injected dose/gram
Biodistribution: spleen ([2]; 1 h, No CI): 40 ± 16 % injected dose/gram
Biodistribution: stomach ([2]; 1 h, No CI): 1.1 ± 0.3 % injected dose/gram
Biodistribution: Blood [2, 3]: 0.45 ± 0.06 % injected dose/gram
Biodistribution: Flu tumor [2, 3]: 0.37 ± 0.05 % injected dose/gram
Biodistribution: Lacrimal gland [2, 3]: 0.75 ± 0.33 % injected dose/gram
Biodistribution: PiP tumor [2, 3]: 35 ± 10 % injected dose/gram
Biodistribution: Salivary gland [2, 3]: 0.46 ± 0.06 % injected dose/gram
Biodistribution: kidneys [2, 3]: 10.0 ± 1.1 % injected dose/gram
Biodistribution: spleen [2, 3]: 0.8 ± 0.14 % injected dose/gram
Biodistribution: stomach [2, 3]: 0.33 ± 0.07 % injected dose/gram
Biodistribution: thyroid [2, 3]: 0.5 ± 0.3 % injected dose/gram
Biodistribution: Blood ([2]; 4 h, No CI): 0.2 ± 0.03 % injected dose/gram
Biodistribution: Flu tumor ([2]; 4 h, No CI): 0.3 ± 0.1 % injected dose/gram
Biodistribution: Lacrimal gland ([2]; 4 h, No CI): 1.9 ± 0.5 % injected dose/gram
Biodistribution: PiP tumor ([2]; 4 h, No CI): 38 ± 13 % injected dose/gram
Biodistribution: Salivary gland ([2]; 4 h, No CI): 0.7 ± 0.2 % injected dose/gram
Biodistribution: kidneys ([2]; 4 h, No CI): 162 ± 3.5 % injected dose/gram
Biodistribution: spleen ([2]; 4 h, No CI): 4.7 ± 1.2 % injected dose/gram
Biodistribution: stomach ([2]; 4 h, No CI): 0.4 ± 0.2 % injected dose/gram
Biodistribution: Blood [2, 4]: 0.02 ± 0.004 % injected dose/gram
Biodistribution: Flu tumor [2, 4]: 0.7 ± 0.01 % injected dose/gram
Biodistribution: Lacrimal gland [2, 4]: 0.14 ± 0.08 % injected dose/gram
Biodistribution: PiP tumor [2, 4]: 35 ± 5.0 % injected dose/gram
Biodistribution: Salivary gland [2, 4]: 0.08 ± 0.04 % injected dose/gram
Biodistribution: kidneys [2, 4]: 2.2 ± 0.3 % injected dose/gram
Biodistribution: spleen [2, 4]: 0.2 ± 0.1 % injected dose/gram
Biodistribution: stomach [2, 4]: 0.2 ± 0.07 % injected dose/gram
Biodistribution: thyroid [2, 4]: 0.14 ± 0.1 % injected dose/gram
Biodistribution: Blood ([2]; 24 h, No CI): 0.02 ± 0.01 % injected dose/gram
Biodistribution: Flu tumor ([2]; 24 h, No CI): 0.04 ± 0.02 % injected dose/gram
Biodistribution: Lacrimal gland ([2]; 24 h, No CI): 0.5 ± 0.2 % injected dose/gram
Biodistribution: PiP tumor ([2]; 24 h, No CI): 51 ± 7 % injected dose/gram
Biodistribution: Salivary gland ([2]; 24 h, No CI): 0.3 ± 0.3 % injected dose/gram
Biodistribution: kidneys ([2]; 24 h, No CI): 31 ± 14 % injected dose/gram
Biodistribution: spleen ([2]; 24 h, No CI): 0.7 ± 0.4 % injected dose/gram
Biodistribution: stomach ([2]; 24 h, No CI): 0.05 ± 0.03 % injected dose/gram
Biodistribution: Blood [2, 5]: 0.001 ± 0.001 % injected dose/gram
Biodistribution: Flu tumor [2, 5]: 0.02 ± 0.01 % injected dose/gram
Biodistribution: Lacrimal gland [2, 5]: 0.02 ± 0.04 % injected dose/gram
Biodistribution: PiP tumor [2, 5]: 33 ± 6 % injected dose/gram
Biodistribution: Salivary gland [2, 5]: 0.02 ± 0.01 % injected dose/gram
Biodistribution: kidneys [2, 5]: 0.3 ± 0.03 % injected dose/gram
Biodistribution: spleen [2, 5]: 0.05 ± 0.04 % injected dose/gram
Biodistribution: stomach [2, 5]: 0.06 ± 0.02 % injected dose/gram
Biodistribution: thyroid [2, 5]: 0.04 ± 0.08 % injected dose/gram
PSMA+ tumor uptake (in words) ([2]; Tables 1, 2, and 3): high PSMA+ tumor uptake
kidney uptake (in words) ([2]; Tables 1, 2, and 3): high initial kidney uptake which clears over time
